Measurements: US20170224654A1, “PHARMACEUTICAL COMPOSITIONS AND METHODS FOR COUNTERING CHEMOTHERAPY INDUCED CARDIOTOXICITY” (Stem Cell Theranostics, Inc., priority 2016, published 2017)

Key:
[1] = tested on: MDA-MB-231 breast cancer cells; experiment: Cell viability with doxorubicin (CellTiter-Glo); type: cell-based; conditions: co-treated with increasing concentrations of doxorubicin, 72 hours
A549 cells (lung cancer) = experiment: Cell viability with doxorubicin (CellTiter-Glo); type: cell-based; conditions: co-treated with increasing concentrations of doxorubicin, 72 hours
Description: A549 cells (lung cancer) were cultured for 1 day before performing experiments. […] XLFit was used for curve fitting.

[2] = tested on: induced pluripotent stem cell-derived cardiomyocytes; experiment: Acute toxicity on electrophysiology (MEA beat period, field potential duration); type: cell-based; conditions: for beat period or field potential duration, as compared to control samples: lower drug concentration, at least 20 minutes; for acute drug toxicity (beating): higher concentrations
Description: Samples were either mock-treated with 0.1% DMSO, or treated with increasing concentrations of the indicated drug for at least 20 minutes. Cardiomyocytes were treated with the hERG potassium channel blocker E4031 as a control. Following treatment, the beat period and field potential duration (FPD) were measured in each sample using the MEA.

[3] = tested on: induced pluripotent stem cell-derived cardiomyocytes; experiment: Long term toxicity on electrophysiology (active electrodes, MEA); type: cell-based; conditions: for number of active electrodes relative to the mock-treated sample (in words): various concentrations, at least 5 days
Description: Samples were either mock-treated with 0.1% DMSO, or treated with various concentrations of the indicated drug. Following treatment, the percentage of active electrodes in each sample was measured for at least 5 days. Percentage of active electrodes was quantified and graphed in a time course.

patient = experiment: Patient treatment examples (echocardiogram / electrocardiogram); type: in vivo, human; conditions: for QT prolongation (in words): doxorubicin (5 mg/mL) given with the protective agent
Description: A patient, with a history of heart disease, is diagnosed with breast cancer. Due to an increased risk for heart failure, the patient is unable to receive the standard treatment regimen of doxorubicin, which is known to induce cardiotoxicity. Instead, the caregiver administers a co-formulation of doxorubicin (10 mg) and vitexin (100 mg). An echocardiogram is performed and blood flow rate is measured to determine if the therapy has a cardiotoxic effect in the patient.
A patient is diagnosed with liver cancer. […] The patient presents with a 20 ms QT prolongation. […] The patient is able to continue receiving treatment over several weeks after which a tissue biopsy is performed to confirm the liver cancer has been eradicated.
(§1) A patient is diagnosed with stage II lung cancer, and presents with bradycardia. Due to an increased risk for heart failure, the patient is unable to receive the standard treatment regimen of doxorubicin, which is known to affect cardiac contraction and induce bradycardia. Instead, the caregiver administers a co-formulation of doxorubicin (10 mg) and myricetin (100 mg). An electrocardiogram is used to monitor the patient's heart rate. […] The lung cancer is down-staged to stage 1, and the cancer is successfully removed with surgery.
as §1, with “myricetin (100 mg) 24 hours before administration” for “a co-formulation”, “(10” for “(10 mg) and myricetin (100”

[4] = tested on: TOPOII enzymes (TOPOIIα and TOPOIIβ); experiment: kDNA decatenation assay, TOPOIIα and TOPOIIβ jointly; type: biochemical; conditions: discussion of Table 1
Description: 200 ng of kinetoplast DNA (kDNA) was incubated with one enzymatic unit of TOPOIIα or TOPOIIβ enzyme (Inspiralis) and with various concentrations of MYR or DEX at 37° C. for 30 min. The reaction was then separated on 1% agarose gel for visualization of decatenated DNA (bottom band). The efficiency of catalytic inhibition was quantified by measuring the relative intensity of the band.

[5] = tested on: Doxorubicin treated human iPSC-derived cardiomyocytes; experiment: iPSC-CM protection of MYR analogs against doxorubicin; type: cell-based; conditions: discussion of Table 1
[6] = tested on: Human iPSC-derived cardiomyocytes; experiment: Cytotoxicity of MYR analogs to cardiomyocytes; conditions: at or below 100 μM as stated
TOPOIIα = molecular target: T1, TOPOIIα (Homo sapiens, UniProt P11388); experiment: kDNA decatenation assay; type: biochemical; conditions: 37° C., 30 min, n=3; read-out: IC50 of TOPOIIα enzyme activity
T1 construct: purchased Inspiralis
T1 sequence (P11388 whole entry): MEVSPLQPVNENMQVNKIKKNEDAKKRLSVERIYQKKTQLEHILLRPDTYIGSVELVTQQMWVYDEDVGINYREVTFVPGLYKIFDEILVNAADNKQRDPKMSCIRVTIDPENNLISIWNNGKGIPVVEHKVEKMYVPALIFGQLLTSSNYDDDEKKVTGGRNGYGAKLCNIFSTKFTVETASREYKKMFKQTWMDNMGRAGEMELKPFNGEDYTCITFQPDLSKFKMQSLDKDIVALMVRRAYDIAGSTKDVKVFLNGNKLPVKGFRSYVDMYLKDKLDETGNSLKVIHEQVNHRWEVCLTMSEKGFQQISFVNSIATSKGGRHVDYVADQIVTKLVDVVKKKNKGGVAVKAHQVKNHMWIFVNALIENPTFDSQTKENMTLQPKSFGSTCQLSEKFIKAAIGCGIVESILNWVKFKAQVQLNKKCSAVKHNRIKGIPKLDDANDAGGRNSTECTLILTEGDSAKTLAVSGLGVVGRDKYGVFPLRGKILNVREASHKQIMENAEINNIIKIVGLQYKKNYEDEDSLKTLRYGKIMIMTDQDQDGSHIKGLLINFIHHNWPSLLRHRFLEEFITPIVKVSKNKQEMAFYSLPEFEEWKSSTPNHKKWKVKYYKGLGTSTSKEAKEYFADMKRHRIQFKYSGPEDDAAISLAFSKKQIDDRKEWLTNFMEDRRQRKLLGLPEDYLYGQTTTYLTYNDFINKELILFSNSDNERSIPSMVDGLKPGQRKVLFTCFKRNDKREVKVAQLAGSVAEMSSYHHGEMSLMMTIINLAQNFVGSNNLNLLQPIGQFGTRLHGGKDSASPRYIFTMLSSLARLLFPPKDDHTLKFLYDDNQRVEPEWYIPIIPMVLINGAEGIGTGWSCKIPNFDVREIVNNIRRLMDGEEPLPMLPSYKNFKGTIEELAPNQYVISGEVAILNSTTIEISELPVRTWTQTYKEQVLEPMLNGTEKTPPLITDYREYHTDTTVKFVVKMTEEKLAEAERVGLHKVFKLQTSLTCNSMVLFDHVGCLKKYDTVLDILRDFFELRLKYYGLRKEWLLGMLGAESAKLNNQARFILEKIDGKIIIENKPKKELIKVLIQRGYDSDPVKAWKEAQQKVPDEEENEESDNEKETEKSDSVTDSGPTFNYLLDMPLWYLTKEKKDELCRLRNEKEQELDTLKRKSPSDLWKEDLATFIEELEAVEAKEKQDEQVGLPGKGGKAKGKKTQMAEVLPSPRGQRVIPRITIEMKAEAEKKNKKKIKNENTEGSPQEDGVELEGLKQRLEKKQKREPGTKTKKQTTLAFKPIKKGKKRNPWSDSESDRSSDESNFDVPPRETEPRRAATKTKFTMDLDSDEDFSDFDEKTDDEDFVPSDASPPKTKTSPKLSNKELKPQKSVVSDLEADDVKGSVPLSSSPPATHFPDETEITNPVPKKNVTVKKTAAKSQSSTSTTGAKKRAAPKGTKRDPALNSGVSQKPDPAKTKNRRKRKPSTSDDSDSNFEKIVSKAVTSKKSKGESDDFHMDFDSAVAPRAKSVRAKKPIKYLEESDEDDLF

TOPOIIβ = molecular target: T2, TOPOIIβ (Homo sapiens, UniProt Q02880); experiment: kDNA decatenation assay; type: biochemical; conditions: 37° C., 30 min, n=3; read-out: IC50 of TOPOIIβ enzyme activity
T2 construct: purchased Inspiralis
T2 sequence (Q02880 whole entry): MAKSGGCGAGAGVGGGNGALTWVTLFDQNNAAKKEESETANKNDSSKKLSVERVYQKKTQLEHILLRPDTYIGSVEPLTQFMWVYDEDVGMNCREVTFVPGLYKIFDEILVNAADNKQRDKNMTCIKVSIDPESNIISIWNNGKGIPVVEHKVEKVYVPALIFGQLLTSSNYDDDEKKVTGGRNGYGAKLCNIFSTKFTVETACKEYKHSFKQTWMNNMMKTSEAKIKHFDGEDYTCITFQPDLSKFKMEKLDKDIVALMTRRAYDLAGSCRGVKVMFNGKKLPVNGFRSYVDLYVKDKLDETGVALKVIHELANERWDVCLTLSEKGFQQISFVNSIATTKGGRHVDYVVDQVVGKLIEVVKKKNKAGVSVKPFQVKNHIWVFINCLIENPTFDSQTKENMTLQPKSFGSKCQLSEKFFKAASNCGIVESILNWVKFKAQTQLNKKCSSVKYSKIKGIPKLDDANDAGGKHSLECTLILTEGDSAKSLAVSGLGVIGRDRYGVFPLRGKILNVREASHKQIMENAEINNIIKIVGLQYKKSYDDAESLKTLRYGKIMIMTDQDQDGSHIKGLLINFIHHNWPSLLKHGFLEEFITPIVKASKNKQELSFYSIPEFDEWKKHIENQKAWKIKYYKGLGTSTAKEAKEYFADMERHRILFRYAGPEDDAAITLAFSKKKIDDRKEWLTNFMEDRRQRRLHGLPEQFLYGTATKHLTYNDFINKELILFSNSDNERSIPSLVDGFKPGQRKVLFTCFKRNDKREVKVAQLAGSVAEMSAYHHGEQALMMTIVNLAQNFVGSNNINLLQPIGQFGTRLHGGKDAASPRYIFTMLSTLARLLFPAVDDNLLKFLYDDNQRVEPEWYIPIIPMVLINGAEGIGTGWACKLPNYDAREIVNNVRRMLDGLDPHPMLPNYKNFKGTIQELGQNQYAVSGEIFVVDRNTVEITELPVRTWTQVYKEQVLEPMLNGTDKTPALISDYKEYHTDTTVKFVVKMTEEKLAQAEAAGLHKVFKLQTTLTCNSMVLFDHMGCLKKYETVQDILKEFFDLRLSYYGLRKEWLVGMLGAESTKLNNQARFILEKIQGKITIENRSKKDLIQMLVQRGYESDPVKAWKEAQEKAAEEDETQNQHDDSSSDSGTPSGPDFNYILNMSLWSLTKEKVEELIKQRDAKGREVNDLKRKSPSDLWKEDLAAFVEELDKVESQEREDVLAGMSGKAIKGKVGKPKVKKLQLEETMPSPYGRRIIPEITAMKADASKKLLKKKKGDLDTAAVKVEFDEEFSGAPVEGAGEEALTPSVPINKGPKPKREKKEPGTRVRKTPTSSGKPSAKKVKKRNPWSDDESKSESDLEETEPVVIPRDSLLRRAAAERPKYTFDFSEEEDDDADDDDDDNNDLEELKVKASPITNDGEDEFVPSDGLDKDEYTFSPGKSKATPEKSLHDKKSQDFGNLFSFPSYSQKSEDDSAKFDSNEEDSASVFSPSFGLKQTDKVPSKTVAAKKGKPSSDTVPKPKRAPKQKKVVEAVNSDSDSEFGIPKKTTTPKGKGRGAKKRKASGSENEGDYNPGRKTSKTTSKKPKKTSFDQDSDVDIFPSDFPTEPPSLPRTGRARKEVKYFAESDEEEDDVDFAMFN

[7] = tested on: topoisomerase IIβ protein in human iPSC-derived cardiomyocytes; experiment: TOPOIIβ protein level (immunostaining), 24 hours; type: cell-based; conditions: 100 μM
Description: To further distinguish molecular mechanisms of MYR from those of DEX and also to determine whether the inhibitory effects of MYR on TOPOII observed in the decatenation assays above is due to degradation of TOPOII proteins, human iPSC-derived cardiomyocytes were treated with DMSO, DEX (100 μM), or MYR (100 μM) for 24 hours, and immunostained with antibody against topoisomerase IIβ (BD Biosciences).
Cells were imaged using INCell Analyzer2200 (GE) and […] protein levels were quantified. Student T-Test (unpaired, two-tailed) was used to determine the significance of the difference.

[8] = tested on: human induced pluripotent stem cell-derived cardiomyocytes; experiment: Long-term mitochondrial health (TMRM), 7 days; type: cell-based; conditions: 1 μM doxorubicin alone or with dexrazoxane or vitexin
Description: Following treatment, the samples were incubated with a tetramethylrhodamine methyl ester (TMRM) dye to indicate mitochondrial health. […] Representative images are presented for each sample, wherein loss of TMRM signal represents mitochondrial toxicity.

in vitro = conditions: human
[9] = tested on: Human iPSC-derived cardiomyocytes; experiment: DOX-induced contractility dysfunction (Pulse videos), 48 hours; type: cell-based
TOPOIIβ mRNA expression = experiment: mRNA expression level in cardiomyocytes; type: cell-based
TOPOIIα mRNA expression = experiment: mRNA expression level in cardiomyocytes; type: cell-based
C57BL/6 mice = experiment: Acute anthracycline-induced cardiotoxicity model, echocardiography; type: in vivo; conditions: Doxorubicin 20 mg/kg single intraperitoneal injection, day 5
Source text: An acute anthracycline-induced cardiotoxicity model was established in 9-10 week old C57BL/6 mice obtained from The Jackson Laboratory. […] General health of the animals was monitored on a daily basis throughout the course of the study. […] Left ventricular (LV) M-mode images were obtained in the two-dimensional short axis view close to the papillary muscles. Tracings of endocardial tissue during systole and diastole were made off line.

[10] = tested on: human induced pluripotent stem cell-derived cardiomyocytes; experiment: Electrophysiological activity with doxorubicin (active electrodes, MEA); type: cell-based; conditions: 1 μM doxorubicin, in the absence of vitexin
Description: Samples were either mock-treated with 0.1% DMSO, treated with 1 μM doxorubicin, or co-treated with 1 μM doxorubicin and various concentrations of vitexin (e.g., 11.6 μM, 37 μM, or 116 μM). Following treatment, the percentage of active electrodes in each sample was measured for 72 hours. Percentage of active electrodes was quantified and graphed in a time course (FIG. 28A). The average number of active electrodes per well was quantified and graphed at 30 hours after the treatment (FIG. 28B, n=6, standard deviation is shown as error bars).

[11] = tested on: Human iPSC-derived cardiomyocytes; experiment: Mitochondrial toxicity imaging (TMRM) after doxorubicin, 2 days; type: cell-based; conditions: 1.25 μM doxorubicin + 79 μM myricetin vs 1.25 μM doxorubicin alone
Description: Following treatment, the samples were incubated with a tetramethylrhodamine methyl ester (TMRM) dye to indicate mitochondrial health, and Hoechst 33342 to identify cell nuclei. Cells were imaged using the INCell Analyzer2200.

[12] = tested on: Human iPSC-derived cardiomyocytes; experiment: DOX-induced DNA double strand break (γH2AX immunostaining); type: cell-based; conditions: DOX 0.5 μM plus 100 μM agent, 48 hours
[13] = tested on: sorafenib treated cardiomyocytes; experiment: Sorafenib-induced contractile dysfunction; type: cell-based, human; conditions: 5 μM sorafenib
cardiomyocytes = experiment: Bortezomib-induced cell death; type: cell-based, human; conditions: 100 μM myricetin
[14] = tested on: human induced pluripotent stem cell-derived cardiomyocytes (iPSC-CM)
[15] = agent alone, DOX at 24 and 48 hours

In the case of `Nc1c(Br)cc(Br)cc1CN[C@H]1CC[C@H](O)CC1` [ambroxol], the “percentage of cell death vs doxorubicin in the absence of a protective agent” value (“percentage of cell death vs doxorubicin” below) [1] is reported as “no significant difference”, the “percentage of cell death vs doxorubicin” value (A549 cells (lung cancer)) is reported as “no significant difference” and the “beat period or field potential duration, as compared to control samples” value [2] is reported as “no appreciable difference”. The “number of active electrodes relative to the mock-treated sample (in words)” value [3] was “no observable decrease”.

For `O=C1C[C@@H](c2ccc(O)cc2)Oc2cc(O)cc(O)c21` [naringenin], the “acute drug toxicity (beating)” value [2] was “beating cessation” and the “beat period or field potential duration, as compared to control samples” value [2] was “no appreciable difference”.

In the case of `C[C@@H]1O[C@@H](Oc2c(-c3cc(O)c(O)c(O)c3)oc3cc(O)cc(O)c3c2=O)[C@H](O)[C@H](O)[C@H]1O` [myricitrin], the “QT prolongation (in words)” value (patient) is reported as “no signs of QT prolongation”.

In the case of `CC(=O)N[C@@H](CS)C(=O)O` [N-acetyl cysteine], the “percentage of cell death vs doxorubicin” value [1] is reported as “no significant difference”, the “percentage of cell death vs doxorubicin” value (A549 cells (lung cancer)) is reported as “no significant difference” and the “beat period or field potential duration, as compared to control samples” value [2] is reported as “no appreciable difference”.

With `Nc1ccc(O)c(C(=O)O)c1` [mesalamine] the “percentage of cell death vs doxorubicin” value [1] was “no significant difference”, the “percentage of cell death vs doxorubicin” value (A549 cells (lung cancer)) was “no significant difference” and the “number of active electrodes relative to the mock-treated sample (in words)” value [3] was “no observable decrease”.

With `COc1cc(-c2oc3cc(O)cc(O)c3c(=O)c2O)cc(O)c1O` [3′-O-methylmyricetin] the “TOPOII (TOPOIIα and TOPOIIβ) inhibition (in words)” value [4] was “failed to inhibit TOPOII enzymes”, the EC50 ([5]; Homo sapiens, Cardiomyocyte, read-out: EC50 / potency for cardioprotection) was about 59 µM and the “cardioprotection (in words)” value [5] was “conferred cardioprotection”. The “cytotoxicity / toxic effects to cardiomyocytes (in words)” value [6] was “without showing generalized cytotoxicity”.

For `C[C@@H](CN1CC(=O)NC(=O)C1)N1CC(=O)NC(=O)C1` [dexrazoxane], the IC50 (TOPOIIα) was 52.7 µM, the IC50 (TOPOIIβ) was 34.4 µM and the “topoisomerase IIβ protein levels” value [7] was “marked disappearance of TOPOIIβ”. The “percentage of cell death vs doxorubicin” value [1] was “no significant difference”, the “mitochondrial toxicity / protection (TMRM-positive cells)” value [8] was “increase in mitochondrial toxicity” and the “percentage of cell death vs doxorubicin” value (A549 cells (lung cancer)) was “no significant difference”. For the same molecule, the “beat period or field potential duration, as compared to control samples” value [2] was “no appreciable difference” and the “reduction in the number of active electrodes” value ([3]; 500 dexrazoxane, about 2 days post-treatment) was about 50%.

Molecule `COc1cccc2c1C(=O)c1c(O)c3c(c(O)c1C2=O)C[C@@](O)(C(=O)CO)C[C@@H]3O[C@H]1C[C@H](N)[C@@H](O)[C@H](C)O1` [epirubicin] has a CC50 at 72 h (in vitro) of 0.49 µM.

With `COc1cccc2c1C(=O)c1c(O)c3c(c(O)c1C2=O)C[C@@](O)(C(=O)CO)C[C@@H]3O[C@H]1C[C@H](N)[C@H](O)[C@H](C)O1` [doxorubicin, reference compound] the cardiomyocyte contraction ([9]; DOX 0.5 μM) was “induced dysfunction in cardiomyocyte contraction”, the “TOPOIIβ mRNA expression” value (TOPOIIβ mRNA expression; [15]) was “significantly repressed” and the “TOPOIIα mRNA expression” value (TOPOIIα mRNA expression; DOX alone, over time) was “slowly repressed”. The “decrease of ejection fraction (EF)” value (C57BL/6 mice) was 19%, the “decrease of fractional shortening (FS)” value (C57BL/6 mice) was 15% and the “mitochondrial toxicity / protection (TMRM-positive cells)” value [8] was “increase in mitochondrial toxicity”. The “decrease in the number of active electrodes” value ([10]; 24 hours) was about 50%, the “decrease in the number of active electrodes, relative to time zero” value ([10]; 30 hours) was about 95% and the CC50 at 72 h (in vitro) was 0.41 µM.

With `C[C@H](CCC(=O)O)[C@H]1CC[C@H]2[C@@H]3[C@H](O)C[C@@H]4C[C@H](O)CC[C@]4(C)[C@H]3CC[C@]12C` [chenodeoxycholic acid] the “acute drug toxicity (beating)” value [2] was “beating cessation” and the “beat period or field potential duration, as compared to control samples” value [2] was “no appreciable difference”.

Work on `CC(=O)[C@]1(O)Cc2c(O)c3c(c(O)c2[C@@H](O[C@H]2C[C@H](N)[C@H](O)[C@H](C)O2)C1)C(=O)c1ccccc1C3=O` [Idarubicin, idarubicin] yielded a CC50 at 72 h (in vitro) of 0.59 µM.

For `O=c1c(O)c(-c2cc(O)c(O)c(O)c2)oc2cc(O)cc(O)c12` [Compound 1, 3,5,7,3′,4′,5′-hexahydroxyflavone], the “TMRM signal (protection against doxorubicin-induced mitochondrial toxicity)” value [11] was “greater TMRM signal”, the “correction of DOX-induced contractile dysfunction (beating, duration, peak height)” value ([9]; DOX 0.5 μM plus MYR 100 μM, compared to DEX 100 μM) was “significantly corrected” and the “protection against DOX-induced DNA double strand break (γH2AX-positive cells)” value [12] was “significant protection”. For the same molecule, the IC50 (TOPOIIβ) was 2.07 µM, the “topoisomerase IIβ protein levels” value [7] was “no effect” and the “TOPOIIβ mRNA expression” value (TOPOIIβ mRNA expression; DOX plus myricetin) was “restored to a level close to normal”. The “TOPOIIβ mRNA expression” value (TOPOIIβ mRNA expression; [15]) was “did not have any effect”, the “TOPOIIα mRNA expression” value (TOPOIIα mRNA expression; DOX plus myricetin) was “further repressed” and the “correction of cardiac dysfunction” value [13] was “more than 80%”. For the same molecule, the “rescue of bortezomib-induced cardiotoxicity” value (cardiomyocytes) was “rescued bortezomib-induced cardiotoxicity”, the “QT prolongation (in words)” value (patient) was “no signs of QT prolongation” and the “cardiac dysfunction in the patient” value (patient; protective agent 100 mg co-formulated with, or 24 hours before, doxorubicin 10 mg) was “no indication of cardiac dysfunction”. For the same molecule, the “number of total cells, as compared to mock-treated control” value [14] was “no significant difference”.

In the case of `CC(=O)N(O)CCCCCNC(=O)CCC(=O)N(O)CCCCCNC(=O)CCC(=O)N(O)CCCCCN` [deferoxamine], the “beat period or field potential duration, as compared to control samples” value [2] is reported as “no appreciable difference”.
